{"source": "patent US4414388A", "about": "“1-Oxo-1H-thiazolo[3,2-a]pyrimidine-2-carboxamides” (Pfizer Inc., priority 1981, dated 1983)", "key": {"[1]": {"system": "IgG", "assay": "passive cutaneous anaphylaxis (PCA) test, oral, IgG (hyperimmune antiserum) site", "assay_type": "in vivo, rat", "settings": "Table I, 1 mg./kg.", "method": "The antiallergy property of the compounds of this invention is evaluated by the passive cutaneous anaphylaxis (PCA) test (Ovary, J. Immun., 81, 355, 1958). In the PCA test, normal animals are injected intradermally (i.d.) with antibodies contained in serum obtained from actively sensitized animals. The animals are then challenged intravenously with antigen mixed with a dye such as Evans' Blue. The increased capillary permeability caused by the antigen-antibody reaction causes the dye to leak from the site of the antibody injection. The test animals are then asphyxiated and the intensity of the reaction determined by measuring the diameter and intensity of the blue coloration on the inner surface of the animals' skin.\nThe PCA test is a measure of the anti-allergic (especially anti-asthmatic) activity of a compound. Compounds which inhibit a positive PCA test induced by the rat immunochemical counterpart of human immunoglobulin E (IgE), or reagin, are considered to have anti-allergic activity (C. Mota, Ann. N.Y. Acad. Sci., 103, 264 1963). (Reagin is primarily immunoglobulin E [IgE] and is the principal immunoglobulin responsible for allergic asthma, anaphylaxis, hay fever, food sensitivities and certain manifestations of drug sensitivities, although recent evidence ascribes to the IgG class of antibodies a significant role in the mediation of allergic diseases). Such compounds when administered to a sensitized subject, human or animal, prior to the time when the subject comes into contact with antigens or substances to which it is allergic, will prevent the allergic reaction which would otherwise occur. They, therefore, provide a method for the prophylactic treatment of allergy or anaphylactic reactions of a reagin mediated nature.\nTo put it another way, such compounds block the release of mediators resulting from the antigen-antibody (allergic) reaction as illustrated in the PCA test using rat homocytotropic antibody--a known correlate of human reaginic antibody. Inhibition of reaginic antigen-antibody reactions in rats, the test animal of the PCA test, is regarded as representative of inhibition of human reaginic antigen-antibody reactions which occur during allergic episodes.\nThe ability of agents to interfere with PCA reactions is measured in male Charles River Wistar rats, 170-210 g. Reaginic antiserum, rich in IgE antibodies, is prepared according to Petillo et al., Int. Arch. Allergy, 44, 309 (1973). Hyperimmune antiserum rich in IgG antibodies to hen egg albumin is prepared according to Orange et al., J. Exptl. Med., 127, 767 (1968). Forty-eight hours prior to antigen challenge, the reaginic antiserum is injected intradermally (i.d.) into the shaved skin of a normal rat's back; 5 hours before challenge the hyperimmune antisera is similarly injected. At a third site 60 mcg. histamine dihydrochloride and 0.5 mcg. serotonin creatinine sulfate are injected i.d. just prior to antigen challenge as a check for antihistaminic, antiserotonin and unspecific types of blockage; the compounds of the instant invention or saline are then administered i.v. and immediately followed by the challenge of 5 mg. egg albumen and 2.5 mg. Evans' Blue dye in saline. In the case of oral administration Evans' Blue dye and egg albumin are given 5 minutes after administration of the drug. Thirty minutes later the animals are asphyxiated using chloroform and the skin of the back removed and reversed for observation. A score is assigned each injection site equal to the product of the diameter of the site in mm. and a grade of 0.1, 0.5, 1, 2, 3 or 4 proportional to intensity of dye coloration. The scores for a given injection site are summed for each group of five animals and compared to the saline treated controls. The difference is expressed as percent blockage due to the compound employed. […]"}, "[2]": {"assay": "plasma concentration / oral absorption in rats", "assay_type": "in vivo, rat", "method": "This is supported by the observations of plasma concentrations of 3 to 7 μg/ml one hour after oral administration of III, 50 to 300 mg/kg."}, "[3]": {"system": "anticholinergic effects", "assay": "anticholinergic effects"}, "[4]": {"system": "anesthetized dogs", "assay": "cardiovascular effects in anesthetized dogs", "assay_type": "in vivo, dog", "settings": "cumulative doses of 5 and 15 mg/kg, i.v."}, "[5]": {"system": "mice", "assay": "acute subcutaneous toleration in mice", "settings": "mouse, in vivo", "method": "(§1) Compound III was administered subcutaneously to mice at doses of 100, 300 or 1000 mg/kg."}, "[6]": {"assay": "acute subcutaneous toleration in mice", "settings": "mouse, in vivo, sc; subcutaneous, mice", "method": "as §1"}, "[7]": {"system": "blood glucose", "assay": "blood glucose levels in fasted rats", "assay_type": "in vivo, rat", "settings": "oral, 10, 30 or 100 mg/kg; fasted 24 hours"}, "[8]": {"system": "histamine and serotonin", "assay": "cutaneous permeability caused by intradermal exogenous histamine and serotonin", "assay_type": "in vivo, rat", "method": "The ability of agents to interfere with PCA reactions is measured in male Charles River Wistar rats, 170-210 g. Reaginic antiserum, rich in IgE antibodies, is prepared according to Petillo et al., Int. Arch. Allergy, 44, 309 (1973). Hyperimmune antiserum rich in IgG antibodies to hen egg albumin is prepared according to Orange et al., J. Exptl. Med., 127, 767 (1968). Forty-eight hours prior to antigen challenge, the reaginic antiserum is injected intradermally (i.d.) into the shaved skin of a normal rat's back; 5 hours before challenge the hyperimmune antisera is similarly injected. At a third site 60 mcg. histamine dihydrochloride and 0.5 mcg. serotonin creatinine sulfate are injected i.d. just prior to antigen challenge as a check for antihistaminic, antiserotonin and unspecific types of blockage; the compounds of the instant invention or saline are then administered i.v. and immediately followed by the challenge of 5 mg. egg albumen and 2.5 mg. Evans' Blue dye in saline. In the case of oral administration Evans' Blue dye and egg albumin are given 5 minutes after administration of the drug. Thirty minutes later the animals are asphyxiated using chloroform and the skin of the back removed and reversed for observation. […] The difference is expressed as percent blockage due to the compound employed."}, "[9]": {"system": "passive systemic anaphylaxis", "assay": "passive systemic anaphylaxis (rise in plasma histamine on antigen challenge)", "assay_type": "in vivo, rat"}, "[10]": {"system": "isolated guinea pig ileum", "assay": "spasms of isolated guinea pig ileum", "settings": "10^-8 to 10^-4 M"}, "[11]": {"system": "phenylbutazone gastric ulcer", "assay": "phenylbutazone gastric ulcer model", "assay_type": "in vivo", "settings": "po", "excerpt": "Miller et al., Gut 20, 75 (1979); Robert et al., Gastroenterology 72, 1121 (1977).] aptly characterizes the effects of compound III."}}}
{"smiles": "O=C(Nc1nnn[nH]1)c1cnc2sc3c(n2c1=O)CCCC3", "note": "[compound III, N-(5-tetrazolyl)-1-oxo-1H-cyclohexenothiazolo[3,2-a]pyrimidine-2-carboxamide]", "values": [{"measurement": "Oral Activity (% of Protection) of Amides in the PCA Test, IgG 1 mg./kg.", "setting": "[1]", "result": 45, "unit": "%"}, {"measurement": "concentration at 1 h", "setting": "[2]; plasma, rat, one hour, oral 50 to 300 mg/kg, read-out: plasma concentration one hour after oral administration, rat", "result": "3 to 7", "unit": "µg/mL"}, {"measurement": "oral absorption, rat", "setting": "[2]; ratio of comparably effective oral and intravenous doses in rat PCA test", "result": "good oral absorption"}, {"measurement": "anticholinergic effects", "setting": "[3]", "result": "no significant anticholinergic effects"}, {"measurement": "blood pressure", "setting": "[4]", "result": "transient hypotension"}, {"measurement": "heart rate", "setting": "[4]", "result": "variable changes in heart rate"}, {"measurement": "pressor responses to epinephrine and bilateral carotid occlusion", "setting": "[4]", "result": "diminished slightly"}, {"measurement": "symptoms or lethality", "setting": "[5]", "result": "No symptoms or lethality was observed"}, {"measurement": "LD50", "setting": "[6]", "result": "> 1000", "unit": "mg/kg"}, {"measurement": "changes in blood glucose levels", "setting": "[7]", "result": "did not exhibit any changes in blood glucose levels"}, {"measurement": "changes in permeability caused by intradermal histamine and serotonin", "setting": "[8]; exogenous histamine and serotonin, intradermal", "result": "does not interfere with the changes in permeability"}, {"measurement": "antihistaminic and antiserotonin effects", "setting": "[8]; rat, in vivo", "result": "absence of antihistaminic and antiserotonin effects"}, {"measurement": "ED50", "setting": "[9]; Rattus norvegicus, iv, rats passively sensitized with IgE-rich antiserum", "result": 0.028, "unit": "mg/kg"}, {"measurement": "rise in plasma histamine caused by antigen challenge", "setting": "[9]; rat, in vivo", "result": "prevented"}, {"measurement": "antagonism of spasms of isolated guinea pig ileum induced with acetylcholine", "setting": "[10]; acetylcholine", "result": "does not antagonize spasms"}, {"measurement": "antagonism of spasms of isolated guinea pig ileum induced with histamine", "setting": "[10]; histamine", "result": "does not antagonize spasms"}, {"measurement": "antagonism of spasms of isolated guinea pig ileum induced with SRS-A", "setting": "[10]; slow reacting substance of anaphylaxis (SRS-A)", "result": "does not antagonize spasms"}, {"measurement": "ED50", "setting": "[11]", "result": 0.2, "unit": "mg/kg"}]}
